Measured values published in PMC4036227 (Journal of medicinal chemistry, 2013).

Target: WT (S31) M2 proton channel (full length AM2 protein) (Influenza A virus, UniProt P0DOF5)
Test: biochemical
Conditions: read-out: WT % inhibition (TEVC)

Chain of WT (S31) M2 proton channel (full length AM2 protein) (P0DOF5 whole entry): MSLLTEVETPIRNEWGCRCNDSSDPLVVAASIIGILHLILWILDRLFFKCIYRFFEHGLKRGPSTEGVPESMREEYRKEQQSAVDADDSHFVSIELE

## COC(=O)[C@H](Cc1cnc[nH]1)NCC12CC3CC(CC(C3)C1)C2 [Compound 3]
  inhibition at 100 µM: 21%
